Data on 11 compounds can be found in paper PMC12747935 (2025).

Holding throughout (test): ribozyme self-cleavage, PAGE with SYBR Gold
Assay [1] deals with Motif_9307 allosteric ribozyme (RNA, riboswitch) GGGCGUAGCCUGAUGAGACUUAUAAUUUUUGAUAUAGAAAUAAAUUACAGUAGUUACACGCAAUAACCGUUGGUCCAAAUAGUAUCCUGUCCUGAGCCGACCGAGUCGAAACGUGGUGAAAGCCACGUCGCUGCGCCGCAGCUGUGGAA
To be noted: 100 mM KCl, 20 mM MgCl2; 30 mM HEPES pH 7.5, 25°C, 30 min; no change in cleavage.

Assay [2] has as its system ThiC-TPP allosteric ribozyme (bridge of four base pairs) (RNA, riboswitch) GGGCGUAGCCUGAUGAGACUCGGGGUGCCCUUCUGCGUGAAGGCUGAGAAAUACCCGUAUCACCUGAUCUGGAUAAUGCCAGCGUAGGGAAGUCGAAACGUGGUGAAAGCCACGUCGCUGCGCCGCAGCUGUGGAA
As to conditions: 100 mM KCl, 20 mM MgCl2, 30 mM HEPES pH 7.5, 25°C, 30 min.

In assay [3] the test system is ThiC-TPP allosteric ribozyme (bridge of three base pairs) (RNA, riboswitch) GGGCGUAGCCUGAUGAGCUCGGGGUGCCCUUCUGCGUGAAGGCUGAGAAAUACCCGUAUCACCUGAUCUGGAUAAUGCCAGCGUAGGGAAGCGAAACGUGGUGAAAGCCACGUCGCUGCGCCGCAGCUGUGGAA
To be noted: 100 mM KCl, 20 mM MgCl2; 30 mM HEPES pH 7.5, 25°C, 30 min; apparent; text gives only 1 to 3 μM for both bridges.

Assay [4] has as its system NCU-TPP allosteric ribozyme (bridge of three base pairs) (RNA, riboswitch) GGGCGUAGCCUGAUGAGACUACGGGCGCUGUCGAAAGACAGCUGAGAUUGUACCGUGAUUACUCGAUCAAGUUAAUGCUUGCGUGAGAAACGUCGAAACGUGGUGAAAGCCACGUCGCUGCGCCGCAGCUGUGGAA
As to conditions: 100 mM KCl, 20 mM MgCl2, 30 mM HEPES pH 7.5, 25°C, 30 min, half-maximal cleavage change.

Assay [5] deals with THEO allosteric ribozyme (RNA, aptamer) GGGCGUAGCCUGAUGAGCCCUAAUACCAGCCGAAAGGCCCUUGGCAGUAGAGCGAAACGUGGAAACACGUCGCUGCGAGCUGUGG
As to conditions: 100 mM KCl, 20 mM MgCl2, 30 mM HEPES pH 7.5, 25°C, 30 min; for binding: 100 μM compound.

As to `CSCC[C@H](N)C(=O)O`, in assay [1], the binding entry is reported as “no”.

`C[S+](CC[C@H](N)C(=O)O)C[C@H]1O[C@@H](n2cnc3c(N)ncnc32)[C@H](O)[C@@H]1O` (stereo partly shown): in assay [1], the binding result is on record as “no”.

As for `Cc1ncc(C[n+]2csc(CCO)c2C)c(N)n1`, the binding entry in assay [2] (cleavage fraction 0.235 against 0.403 without ligand) is “yes”.

On to `Cc1ncc(C[n+]2csc(CCOP(=O)(O)OP(=O)(O)O)c2C)c(N)n1`, for which the “apparent K D” value in assay [2] (apparent, half-maximal cleavage inhibition) stood at 1200 ± 200 nM; in assay [4] it was 2400 ± 1400 nM. In assay [3], the “K D” value was 3000 ± 1100 nM.

As for `Cn1c(=O)[nH]c(=O)c2[nH]cnc21`, the binding entry in assay [5] (cleavage fraction 0.421 against 0.163 without ligand) is recorded as “yes”.

As for `Cn1c(=O)[nH]c2nc[nH]c2c1=O`, the binding entry in assay [5] (cleavage fraction 0.300 against 0.163 without ligand) was “weak”.

In the case of `Cn1c(=O)c2[nH]cnc2n(C)c1=O`, in assay [5] (apparent, half-maximal cleavage induction), the “apparent K D” value is 3100 ± 200 nM.

As to `NC(=O)CC[C@H](N)C(=O)O`, in assay [1], the binding result was “no”.

As for `N[C@@H](CCS)C(=O)O`, in assay [1], the binding entry is “no”.

On to `N[C@@H](Cc1cnc[nH]1)C(=O)O`, for which, in assay [2] (cleavage fraction 0.393 against 0.403 without ligand), the binding entry is “no”.

Regarding `Nc1ncnc2c1ncn2[C@@H]1O[C@H](CSCC[C@H](N)C(=O)O)[C@@H](O)[C@H]1O`, in assay [1], the binding entry is on record as “no”.
